Results: PubChem BioAssay (NCI)
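Cultured in 96-well plates, cells were exposed to test compound for 48 hours across five concentrations. The concentration for 50% growth inhibition is given as GI50. TGI: concentration producing complete growth inhibition.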

What was measured:
Assay in all cases: NCI anticancer screen, dose series, 48 h
[1] = test system: 786-0 renal
[2] = test system: A498 renal
[3] = test system: A549 NSCLC
[4] = test system: ACHN renal
[5] = test system: BT-549 breast
[6] = test system: CAKI-1 renal
[7] = test system: CCRF-CEM leukemia
[8] = test system: COLO 205 colon
[9] = test system: DU-145 prostate
[10] = test system: EKVX NSCLC
[11] = test system: HCC-2998 colon
[12] = test system: HCT-116 colon
[13] = test system: HCT-15 colon
[14] = test system: HL-60(TB) leukemia
[15] = test system: HOP-62 NSCLC
[16] = test system: HOP-92 NSCLC
[17] = test system: HS 578T breast
[18] = test system: HT29 colon
[19] = test system: IGROV1 ovarian
[20] = test system: K-562 leukemia
[21] = test system: KM12 colon
[22] = test system: LOX IMVI melanoma
[23] = test system: M14 melanoma
[24] = test system: MALME-3M melanoma
[25] = test system: MCF7 breast
[26] = test system: MDA-MB-231 breast
[27] = test system: MDA-MB-435
[28] = test system: MDA-MB-468 breast
[29] = test system: MOLT-4 leukemia
[30] = test system: NCI-H226 lung
[31] = test system: NCI-H23 lung
[32] = test system: NCI-H460 lung
[33] = test system: NCI-H522 lung
[34] = test system: NCI/ADR-RES ovarian
[35] = test system: OVCAR-3 ovarian
[36] = test system: OVCAR-5 ovarian
[37] = test system: OVCAR-8 ovarian
[38] = test system: PC-3 prostate
[39] = test system: RPMI-8226 leukemia
[40] = test system: RXF 393 renal
[41] = test system: SF-268 CNS
[42] = test system: SF-295 CNS
[43] = test system: SF-539 CNS
[44] = test system: SK-MEL-2 melanoma
[45] = test system: SK-MEL-28 melanoma
[46] = test system: SK-MEL-5 melanoma
[47] = test system: SK-OV-3 ovarian
[48] = test system: SN12C renal
[49] = test system: SNB-19 CNS
[50] = test system: SNB-75 CNS
[51] = test system: SR leukemia
[52] = test system: SW-620 colon
[53] = test system: T-47D breast
[54] = test system: TK-10 renal
[55] = test system: U251 CNS
[56] = test system: UACC-257 melanoma
[57] = test system: UACC-62 melanoma
[58] = test system: UO-31 renal
[59] = test system: OVCAR-4 ovarian

COc1ccc(NC(=O)Cn2c(/C=C/c3cccc(OC)c3)nc3ccccc3c2=O)cc1
GI50 [1]: 1.54 µM | TGI [1]: 3.38 µM | GI50 [2]: 1.96 µM | TGI [2]: 4.68 µM | GI50 [3]: 2.3 µM | TGI [3]: > 100 µM | GI50 [4]: 1.24 µM | TGI [4]: 3.17 µM | GI50 [5]: 9.84 µM | TGI [5]: > 59.9 µM | GI50 [6]: 2.52 µM | TGI [6]: > 31.7 µM | GI50 [7]: > 100 µM | TGI [7]: > 100 µM | GI50 [8]: > 100 µM | TGI [8]: > 100 µM | GI50 [9]: > 81.2 µM | TGI [9]: > 100 µM | GI50 [10]: > 63.1 µM | TGI [10]: > 100 µM | GI50 [11]: > 100 µM | TGI [11]: > 100 µM | GI50 [12]: 1.21 µM | TGI [12]: > 59 µM | GI50 [13]: > 100 µM | TGI [13]: > 100 µM | GI50 [14]: > 100 µM | TGI [14]: > 100 µM | GI50 [15]: 3.01 µM | TGI [15]: 28.3 µM | GI50 [16]: 2.95 µM | TGI [16]: > 44.7 µM | GI50 [17]: 2.46 µM | TGI [17]: > 100 µM | GI50 [18]: > 100 µM | TGI [18]: > 100 µM | GI50 [19]: > 31 µM | TGI [19]: > 87.8 µM | GI50 [20]: > 100 µM | TGI [20]: > 100 µM | GI50 [21]: > 100 µM | TGI [21]: > 100 µM | GI50 [22]: 2.03 µM | TGI [22]: > 100 µM | GI50 [23]: > 29.3 µM | TGI [23]: > 100 µM | GI50 [24]: 3.79 µM | TGI [24]: > 85.8 µM | GI50 [25]: 3.56 µM | TGI [25]: > 100 µM | GI50 [26]: 1.4 µM | TGI [26]: 4.42 µM | GI50 [27]: > 100 µM | TGI [27]: > 100 µM | GI50 [28]: 3.4 µM | TGI [28]: > 91.6 µM | GI50 [29]: > 100 µM | TGI [29]: > 100 µM | GI50 [30]: 1.98 µM | TGI [30]: 6.51 µM | GI50 [31]: 3.69 µM | TGI [31]: > 44.3 µM | GI50 [32]: 2.51 µM | TGI [32]: > 100 µM | GI50 [33]: 5.8 µM | TGI [33]: > 47.5 µM | GI50 [34]: 4.14 µM | TGI [34]: 86.9 µM | GI50 [35]: 4.03 µM | TGI [35]: > 45.9 µM | GI50 [36]: > 24.9 µM | TGI [36]: > 100 µM | GI50 [37]: 4.55 µM | TGI [37]: > 100 µM | GI50 [38]: > 54 µM | TGI [38]: > 100 µM | GI50 [39]: > 100 µM | TGI [39]: > 100 µM | GI50 [40]: 1.93 µM | TGI [40]: 5.63 µM | GI50 [41]: 19.4 µM | TGI [41]: > 100 µM | GI50 [42]: 2.56 µM | TGI [42]: > 41.1 µM | GI50 [43]: 1.65 µM | TGI [43]: 4.15 µM | GI50 [44]: 27.2 µM | TGI [44]: 79.6 µM | GI50 [45]: > 75 µM | TGI [45]: > 100 µM | GI50 [46]: > 100 µM | TGI [46]: > 100 µM | GI50 [47]: 5.67 µM | TGI [47]: > 46.7 µM | GI50 [48]: 1.85 µM | TGI [48]: > 39.1 µM | GI50 [49]: 8.37 µM | TGI [49]: > 59.3 µM | GI50 [50]: 1.63 µM | TGI [50]: 4.49 µM | GI50 [51]: 1.75 µM | TGI [51]: > 100 µM | GI50 [52]: > 100 µM | TGI [52]: > 100 µM | GI50 [53]: 2.41 µM | TGI [53]: 14.6 µM | GI50 [54]: 2.03 µM | TGI [54]: 4.5 µM | GI50 [55]: 0.973 µM | TGI [55]: 4.2 µM | GI50 [56]: > 100 µM | TGI [56]: > 100 µM | GI50 [57]: > 42.1 µM | TGI [57]: > 89.6 µM | GI50 [58]: 1.73 µM | TGI [58]: 3.77 µM

COc1cc(C2CC(c3ccc(C(F)(F)F)cc3)=Nc3c(N)nc(N)nc3N2)ccc1Oc1nc(Nc2ccc(F)cc2)nc(N(C)C)n1 (stereo unspecified)
GI50 [1]: 4 µM | TGI [1]: 16.6 µM | GI50 [2]: 17 µM | TGI [2]: 89.9 µM | GI50 [3]: 4.78 µM | TGI [3]: > 100 µM | GI50 [4]: 6.05 µM | TGI [4]: > 100 µM | GI50 [5]: 4.41 µM | TGI [5]: 21 µM | GI50 [6]: 1.65 µM | TGI [6]: > 100 µM | GI50 [7]: 3.32 µM | TGI [7]: > 100 µM | GI50 [8]: 3.09 µM | TGI [8]: 14.7 µM | GI50 [9]: 4.9 µM | TGI [9]: > 100 µM | GI50 [10]: 4.23 µM | TGI [10]: > 100 µM | GI50 [11]: 2.26 µM | TGI [11]: 5.69 µM | GI50 [12]: 1.76 µM | TGI [12]: 3.65 µM | GI50 [13]: 3.4 µM | TGI [13]: 14.6 µM | GI50 [14]: 2.35 µM | TGI [14]: 47.3 µM | GI50 [15]: 17.8 µM | TGI [15]: 74.6 µM | GI50 [16]: 2.1 µM | TGI [16]: 9.46 µM | GI50 [17]: 4.77 µM | TGI [17]: 96.2 µM | GI50 [18]: 2.23 µM | TGI [18]: 5.86 µM | GI50 [19]: 5 µM | TGI [19]: > 100 µM | GI50 [20]: 1.85 µM | TGI [20]: > 100 µM | GI50 [21]: 3.05 µM | TGI [21]: 11.7 µM | GI50 [23]: 4.41 µM | TGI [23]: 50.7 µM | GI50 [24]: 2.84 µM | TGI [24]: 14.2 µM | GI50 [25]: 2.66 µM | TGI [25]: 10.7 µM | GI50 [26]: 2.29 µM | TGI [26]: 8.39 µM | GI50 [27]: 4.59 µM | TGI [27]: 23.5 µM | GI50 [28]: 2.4 µM | TGI [28]: 7.79 µM | GI50 [29]: 1.71 µM | TGI [29]: > 100 µM | GI50 [31]: 16.9 µM | TGI [31]: 74.9 µM | GI50 [32]: 2.61 µM | TGI [32]: 7.19 µM | GI50 [33]: 4.75 µM | TGI [33]: 23.3 µM | GI50 [35]: 5.46 µM | TGI [35]: 21.9 µM | GI50 [59]: 3.92 µM | TGI [59]: 33.1 µM | GI50 [36]: 35.2 µM | TGI [36]: > 100 µM | GI50 [37]: 5.48 µM | TGI [37]: > 100 µM | GI50 [38]: 3.2 µM | TGI [38]: > 100 µM | GI50 [40]: 1.22 µM | TGI [40]: 5.54 µM | GI50 [41]: 6.14 µM | TGI [41]: > 100 µM | GI50 [42]: 7.12 µM | TGI [42]: 62.1 µM | GI50 [43]: 6.1 µM | TGI [43]: 22.1 µM | GI50 [44]: 2.94 µM | TGI [44]: 11.7 µM | GI50 [45]: 28.1 µM | TGI [45]: > 100 µM | GI50 [46]: 3.32 µM | TGI [46]: 12.8 µM | GI50 [47]: 63.5 µM | TGI [47]: > 100 µM | GI50 [48]: 6.09 µM | TGI [48]: 46.6 µM | GI50 [49]: 9.14 µM | TGI [49]: > 100 µM | GI50 [50]: 2.17 µM | TGI [50]: > 100 µM | GI50 [51]: 1.89 µM | TGI [51]: 5.9 µM | GI50 [52]: 5.59 µM | TGI [52]: 75.2 µM | GI50 [53]: 19 µM | TGI [53]: > 100 µM | GI50 [54]: 18 µM | TGI [54]: 71 µM | GI50 [55]: 4.63 µM | TGI [55]: 21.1 µM | GI50 [56]: 14.1 µM | TGI [56]: 76.5 µM | GI50 [57]: 13.1 µM | TGI [57]: 31.2 µM | GI50 [58]: 3.66 µM | TGI [58]: > 100 µM
